Source: ChEMBL document CHEMBL5661955, “ASAP - In vitro cytotoxicity” (2024)

Key:
[1] = (§1) Functional CPE-based assay to measure dose dependent changes in cell viability from drug treatment in Vero E6 miRFP670 cells (cotreated with P-gp inhibitor, CP100356). Cells are treated with antiviral candidates that have been serially diluted. Cytotoxicity is reported via analysis of MTS assays in uninfected cells. The assay has been performed by KU Leuven.; assay type: toxicity, Vero C1008; settings: chlorocebus sabaeus, Vero E6 miRFP670 cells, with CP100356 (P-gp inhibitor, concentration not stated); p-gp concentration 500 nM
[2] = Functional assay to measure dose dependent changes in cell viability from drug treatment in Vero E6 miRFP670 cells (cotreated with P-gp inhibitor, CP100356) that are infected with Dengue virus type 2 New Guinea C. […] Cytotoxicity is reported via via analysis of DAPI count using high-content imager. The assay has been performed by KU Leuven.; assay type: toxicity, cell-based, Vero C1008; settings: chlorocebus sabaeus, with CP100356 (P-gp inhibitor, concentration not stated); p-gp concentration 500 nM
[3] = Functional metabolic assay to measure dose dependent changes in cell viability from drug treatment in Vero E6/TMPRSS2 cells (cotreated with P-gp inhibitor, Elacridar). […] Cytotoxicity is reported via measuring absorbance and analysis of MTT/MTS assays in uninfected cells. The assay has been performed by Icahn School of Medicine at Mount Sinai.; assay type: toxicity, cell-based, VeroE6/TMPRSS2; settings: chlorocebus sabaeus, p-gp concentration 2 uM; for CC50: Vero E6/TMPRSS2 cells, with Elacridar (P-gp inhibitor, concentration not stated)
[4] = as §1, with “cells.” for “cells (cotreated with P-gp inhibitor, CP100356).”; assay type: toxicity, Vero C1008; settings: chlorocebus sabaeus, Vero E6 miRFP670 cells

## O=C1Cc2c(cc(Br)cc2C(=O)Nc2ccc3c(c2)CNC3)N1
[1]
  CC50: > 50 µM
[2]
  CC50: 27.7 µM
[3]
  CC50: > 50 µM

## NCc1cccc(NC(=O)c2cc(Cl)cc3c2cnn3CC2CC2)c1
[2]
  CC50: 24.1 µM
[4]
  CC50: 20.7 µM

## CC(C)Oc1ccc(S(=O)(=O)Nc2ccc(Cl)cc2C(=O)O)cc1
[4]
  CC50: > 50 µM

## N#C[C@H](Nc1cncc(-c2nn[nH]n2)c1)c1cc(Cl)cc(NC(=O)OCc2ccccc2)c1
[4]
  CC50: > 50 µM

## N[C@H]1Cc2ccc(NC(=O)c3cc(Cl)cc(NC(=O)OCc4ccccc4)c3)cc2C1
[2]
  CC50: 4.15 µM
[4]
  CC50: 2.82 µM

## O=C(NS(=O)(=O)C1CC1)c1cc(Cl)ccc1NS(=O)(=O)c1ccc(Oc2ccccc2Cl)cc1
[2]
  CC50: > 50 µM
[4]
  CC50: > 50 µM

## O=C(Nc1cc(Cl)cc([C@H]2[C@H](CO)[C@@H]2c2cccc(-c3nn[nH]n3)c2)c1)OCc1ccccc1
[4]
  CC50: > 50 µM

## O=C(Nc1cccc(-c2nnn[nH]2)c1)c1cc(Cl)cc2[nH]ncc12
[4]
  CC50: > 50 µM

## O=C(Nc1cc(Cl)cc(C(=O)Nc2cccc([C@H]3C[C@H]3C(=O)O)c2)c1)OCc1ccccc1
[4]
  CC50: > 50 µM

## COc1ccc(S(=O)(=O)Nc2cc(F)c(Cl)cc2C(=O)NCC(C)C)cc1
[4]
  CC50: 4.25 µM

## NCc1cccc(NC(=O)[C@H](NC(=O)OCc2ccccc2)c2ccc(Br)c(Cl)c2)c1
[2]
  CC50: 13.4 µM
[4]
  CC50: 10 µM

## O=C(Nc1cc(Cl)cc(-c2ccc3[nH]nc(C(=O)O)c3c2)c1)OCc1ccccc1
[2]
  CC50: 13.6 µM
[4]
  CC50: > 50 µM

## O=C(NCC1CC1)c1cc(Cl)ccc1NS(=O)(=O)c1ccc(Oc2ccccc2Cl)cc1
[4]
  CC50: 5.46 µM

## NCc1cccc(NC(=O)c2cc(Cl)cc(C(N)=O)c2)c1
[2]
  CC50: > 50 µM
[4]
  CC50: > 50 µM

## NCc1cc(NC(=O)c2cc(Cl)cc(NC(=O)OCc3ccccc3)c2)cc([C@@H]2C[C@H]2C(=O)O)c1
[2]
  CC50: 21.8 µM
[4]
  CC50: 9.99 µM

## COc1cccc(-c2ccc([C@@H](NC(=O)OCc3ccccc3)C(=O)Nc3cccc(CN)c3)cc2)c1
[2]
  CC50: 23.1 µM
[4]
  CC50: 6.76 µM

## CCOCCNC(=O)c1cc(Cl)ccc1NS(=O)(=O)c1ccc(Oc2ccccc2Cl)cc1
[4]
  CC50: 8.81 µM

## CNC(=O)[C@H](Nc1cc(CN)cc(C(=O)O)c1)c1cc(Cl)cc(C2CC2)c1
[2]
  CC50: > 50 µM
[4]
  CC50: > 50 µM

## O=C(Nc1cc(Cl)cc([C@H]2C[C@@H]2c2cccc(C3CCNCC3)c2)c1)OCc1ccccc1
[2]
  CC50: 3.44 µM
[4]
  CC50: 1.23 µM

## CCNC(=O)Nc1cc(Cl)cc(C(=O)Nc2ccc3c(c2)CNCCO3)c1
[2]
  CC50: 35.3 µM
[4]
  CC50: > 50 µM

## NCc1cccc(NC(=O)c2cc(Cl)cc(C3CC3)c2)c1
[4]
  CC50: 46.6 µM

## COc1cc(-c2cc(Cl)cc(NC(=O)OCc3ccccc3)c2)c(OC)cc1CC(=O)O
[4]
  CC50: 49.8 µM

## CCNC(=O)Nc1cc(Cl)cc(C(=O)Nc2cccc(CN)c2)c1
[2]
  CC50: > 50 µM
[4]
  CC50: > 50 µM

## OCC#C[C@H](Nc1ccc2c(c1)CNC2)c1cc(Cl)cc2[nH]ncc12
[2]
  CC50: > 50 µM
[4]
  CC50: > 50 µM

## NCc1cccc(NC(=O)c2cc(Cl)cc3[nH]ncc23)c1
[4]
  CC50: > 50 µM

## O=C(NC1CCCCC1)c1cc(Cl)ccc1NS(=O)(=O)c1ccc(Oc2ccccc2Cl)cc1
[4]
  CC50: 3.46 µM

## O=C(Nc1cccc(-c2nnn[nH]2)c1)c1cc(Cl)cc(C2CC2)c1
[4]
  CC50: > 50 µM

## O=C(O)c1cc(Cl)c(F)cc1S(=O)(=O)Nc1ccc(Oc2ccccc2Cl)cc1
[2]
  CC50: > 50 µM
[4]
  CC50: > 50 µM

## CC(=O)NCc1cccc(NC(=O)c2cc(Cl)cc(NC(=O)OCc3ccccc3)c2)c1
[4]
  CC50: 38 µM

## NCc1cccc(NC(=O)[C@@H](NC(=O)OCc2ccccc2)c2ccc(-c3cc4cccnc4s3)cc2)c1
[2]
  CC50: > 50 µM
[4]
  CC50: 34.7 µM

## O=C(Nc1cc(Cl)cc(-c2cccc3c(C(=O)O)cccc23)c1)OCc1ccccc1
[4]
  CC50: < 0.391 µM

## NCc1cccc(NC(=O)[C@H](NC(=O)OCc2ccccc2)C2CCC(c3ccccc3)CC2)c1 (some centres undefined)
[2]
  CC50: 11.5 µM
[4]
  CC50: 4.58 µM

## NCc1cc(Cl)cc(C(=O)Nc2ccc3c(c2)CNC3)c1
[4]
  CC50: > 50 µM

## CCc1cc(C(=O)Nc2cccc(-c3nnn[nH]3)c2)sc1-c1ccc(Cl)cc1
[1]
  CC50: 38.6 µM
[2]
  CC50: > 50 µM
[3]
  CC50: > 50 µM
[3]; veroe6/tmprss2
  CC10: > 50 µM

## CNC(=O)[C@H](Nc1cc(CN)cc(C(=O)O)c1)c1cc(Cl)cc(NC(=O)OCc2ccccc2)c1
[2]
  CC50: > 50 µM
[4]
  CC50: > 50 µM

## O=C(Nc1cc(Cl)cc(C(=O)Nc2ccc3c(c2)CNCC3)c1)OCc1ccccc1
[2]
  CC50: 3.27 µM
[4]
  CC50: 2.85 µM
